Measurements as given in patent US20230117034A1, “PYRAZOLOTRIAZINES” (Bayer Aktiengesellschaft, priority 2019, published 2023).

Tests used:
CDK12/CycK = CDK12/CycK (Homo sapiens, UniProt Q9NYV4); assay: CDK12/CycK high ATP kinase assay (TR-FRET, 2 mM ATP); type: biochemical; details: 2 mM ATP (high ATP); median; read-out: CDK12/CyclinK, 2 mM ATP (high ATP), IC50-[mol/l] (median)
Method in brief: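 His-tagged human CDK12/CycK (~0.75 nM) pre-incubated 15 min with compound, then 60 min at 22 °C with 2 mM ATP and 1 µM biotinylated peptide (HEPES pH 7.5, 20 mM MgCl2). EDTA stop; phospho-Ser62 antibody/Eu anti-rabbit and streptavidin-XL665 TR-FRET, 665/620 nm ratio normalised to give IC50.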

[1] = test system: BRCA1 mRNA expression in MDA-MB-231 cells; assay: qRT-PCR assay: BRCA1 mRNA expression in MDA-MB-231; type: cell-based, human; details: Homo sapiens, MDA-MB-231, Inhibition of BRCA1 mRNA expression in MDA-MB-231 cells; median; read-out: RTqPCR-MDA-MB-231, IC50, BRCA1 (median)
Method in brief: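 MDA-MB-231 cells, 200,000/well, treated 24 h after plating with continuous 24 h compound exposure. RNA extracted, 600 ng reverse-transcribed, BRCA1 measured by RT-qPCR normalized to GAPDH.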

[2] = target: T1, CDK12 (nuclear staining in CAL-120 cells) (Homo sapiens, UniProt Q9NYV4); assay: CDK12 nuclear protein level: immunofluorescence/high content analysis (CAL-120); type: cell-based; details: for DC50: CAL-120 cells, 24 h, immunofluorescence, 50% reduction of nuclear CDK12 staining intensity, median, read-out: CDK12 degradation IF, DC50- [mol/l] (median); for (IC50 CDK12 high ATP) to (Degradation DC50 CDK12) ratio: ratio of IC50 CDK12 high ATP kinase assay to DC50 CDK12 degradation (IF, CAL-120)
T1 construct: endogenous in cells; host or cells: CAL-120 human breast cancer cells (DSMZ ACC 459)
Method in brief: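 CAL-120 cells were treated with compound for 24 h at 37 °C, fixed with PFA and immunostained for CDK12. Nuclear CDK12 intensity was quantified by automated image analysis and normalized to DMSO and control. DC50 is the concentration giving 50% reduction of nuclear staining.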

CDK12/CycK, sequence (Q9NYV4 with tags, fused parts or gaps): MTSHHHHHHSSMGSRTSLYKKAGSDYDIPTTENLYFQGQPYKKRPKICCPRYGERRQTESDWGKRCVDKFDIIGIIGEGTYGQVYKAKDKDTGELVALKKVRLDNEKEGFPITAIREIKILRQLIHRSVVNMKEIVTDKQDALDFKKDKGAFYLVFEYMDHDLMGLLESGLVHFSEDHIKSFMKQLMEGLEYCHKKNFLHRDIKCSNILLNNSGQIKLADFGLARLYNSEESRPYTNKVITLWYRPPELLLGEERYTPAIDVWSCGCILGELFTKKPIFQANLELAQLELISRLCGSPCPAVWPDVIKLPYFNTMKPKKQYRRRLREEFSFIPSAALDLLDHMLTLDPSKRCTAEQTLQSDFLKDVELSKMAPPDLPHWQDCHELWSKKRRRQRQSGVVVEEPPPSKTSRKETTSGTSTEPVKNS
CDK12/CycK, sequence (O75909 1-300 partner limits assumed): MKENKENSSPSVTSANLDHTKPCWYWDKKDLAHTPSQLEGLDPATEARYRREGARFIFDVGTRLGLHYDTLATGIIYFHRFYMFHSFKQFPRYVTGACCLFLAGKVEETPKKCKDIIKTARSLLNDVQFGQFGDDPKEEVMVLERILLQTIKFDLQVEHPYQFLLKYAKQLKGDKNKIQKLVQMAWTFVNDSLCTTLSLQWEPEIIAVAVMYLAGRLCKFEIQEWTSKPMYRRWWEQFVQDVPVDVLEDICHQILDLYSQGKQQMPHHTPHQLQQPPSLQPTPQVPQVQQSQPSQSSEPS
T1 sequence (Q9NYV4 whole entry): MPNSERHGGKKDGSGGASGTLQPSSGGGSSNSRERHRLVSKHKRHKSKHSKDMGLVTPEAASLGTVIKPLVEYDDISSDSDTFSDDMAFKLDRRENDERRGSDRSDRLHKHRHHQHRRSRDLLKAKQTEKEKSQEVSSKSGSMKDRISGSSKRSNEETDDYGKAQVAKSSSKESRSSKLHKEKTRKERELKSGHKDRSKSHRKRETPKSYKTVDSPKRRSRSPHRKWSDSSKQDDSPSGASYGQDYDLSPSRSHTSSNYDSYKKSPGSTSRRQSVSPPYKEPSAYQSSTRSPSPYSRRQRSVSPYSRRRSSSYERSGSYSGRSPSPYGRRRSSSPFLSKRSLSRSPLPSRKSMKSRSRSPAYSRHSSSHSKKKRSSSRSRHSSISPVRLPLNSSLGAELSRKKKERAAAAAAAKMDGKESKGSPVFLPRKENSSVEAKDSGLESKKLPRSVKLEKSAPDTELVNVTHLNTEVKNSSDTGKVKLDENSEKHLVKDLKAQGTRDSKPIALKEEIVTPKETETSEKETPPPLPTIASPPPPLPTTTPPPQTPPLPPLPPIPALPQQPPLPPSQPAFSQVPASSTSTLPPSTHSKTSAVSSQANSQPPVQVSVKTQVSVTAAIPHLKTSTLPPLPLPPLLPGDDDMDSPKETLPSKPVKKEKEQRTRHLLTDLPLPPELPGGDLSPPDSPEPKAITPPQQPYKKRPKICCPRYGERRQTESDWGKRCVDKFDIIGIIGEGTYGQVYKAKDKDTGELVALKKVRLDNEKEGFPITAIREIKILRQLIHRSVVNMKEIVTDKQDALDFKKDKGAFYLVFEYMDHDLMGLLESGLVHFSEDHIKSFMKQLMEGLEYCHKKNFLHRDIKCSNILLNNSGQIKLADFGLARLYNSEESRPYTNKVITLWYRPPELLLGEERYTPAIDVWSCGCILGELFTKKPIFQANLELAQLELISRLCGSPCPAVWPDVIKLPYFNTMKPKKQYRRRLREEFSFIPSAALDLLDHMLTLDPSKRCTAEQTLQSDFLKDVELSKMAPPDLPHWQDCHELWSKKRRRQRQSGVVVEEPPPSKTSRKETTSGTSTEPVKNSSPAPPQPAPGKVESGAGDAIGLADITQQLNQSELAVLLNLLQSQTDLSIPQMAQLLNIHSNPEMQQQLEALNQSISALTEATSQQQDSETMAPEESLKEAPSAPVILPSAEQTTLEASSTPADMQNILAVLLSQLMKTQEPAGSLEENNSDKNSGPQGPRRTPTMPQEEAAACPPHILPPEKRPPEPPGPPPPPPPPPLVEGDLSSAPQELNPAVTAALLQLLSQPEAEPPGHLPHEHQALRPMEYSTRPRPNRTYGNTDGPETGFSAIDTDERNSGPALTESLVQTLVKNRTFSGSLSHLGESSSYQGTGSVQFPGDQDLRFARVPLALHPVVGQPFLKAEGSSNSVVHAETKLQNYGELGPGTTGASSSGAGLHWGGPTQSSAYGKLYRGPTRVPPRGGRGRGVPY
T1 sequence (O75909 whole entry partner): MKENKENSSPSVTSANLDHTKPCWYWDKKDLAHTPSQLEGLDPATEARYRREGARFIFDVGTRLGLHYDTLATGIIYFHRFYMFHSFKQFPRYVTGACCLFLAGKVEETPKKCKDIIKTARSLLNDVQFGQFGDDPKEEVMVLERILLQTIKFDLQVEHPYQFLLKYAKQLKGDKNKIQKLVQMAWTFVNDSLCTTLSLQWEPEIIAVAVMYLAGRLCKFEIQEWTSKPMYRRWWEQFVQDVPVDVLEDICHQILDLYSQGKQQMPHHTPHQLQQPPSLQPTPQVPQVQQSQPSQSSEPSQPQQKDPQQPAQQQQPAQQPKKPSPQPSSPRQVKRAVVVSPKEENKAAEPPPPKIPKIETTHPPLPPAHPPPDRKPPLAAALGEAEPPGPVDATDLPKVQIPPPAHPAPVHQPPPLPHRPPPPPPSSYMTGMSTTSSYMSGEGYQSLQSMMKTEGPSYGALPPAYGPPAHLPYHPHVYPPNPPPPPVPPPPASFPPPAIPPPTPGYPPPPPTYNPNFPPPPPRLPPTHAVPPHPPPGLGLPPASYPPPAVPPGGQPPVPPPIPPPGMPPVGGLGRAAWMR

IC50 (CDK12/CycK) [µM] | IC50 [1] [nM] | DC50 [2] [nM] | (IC50 CDK12 high ATP) to (Degradation DC50 CDK12) ratio [2] | Compound
13.7 | 3.32 | 1.09 | 12610 | C[C@H]1CN(c2nc(NCc3nc4ccccc4[nH]3)n3ncc(Br)c3n2)CCN1 [Example 169, N-[(1H-benzimidazol-2-yl)methyl]-8-bromo-2-[(3S)-3-methylpiperazin-1-yl]pyrazolo[1,5-a][1,3,5]triazin-4-amine]
2.04 | 3.32 | 0.727 | 2813 | Fc1cccc2[nH]c(CNc3nc(N4CCNCC4)nc4c(C5CC5)cnn34)nc12 [Example 182, 8-cyclopropyl-N-[(4-fluoro-1H-benzimidazol-2-yl)methyl]-2-(piperazin-1-yl)pyrazolo[1,5-a][1,3,5]triazin-4-amine]
6.02 | 10 | 5.05 | 1191 | Clc1cnn2c(NCc3nc4ccccc4[nH]3)nc(N3CCOCC3)nc12 [Example 15, N-[(1H-benzimidazol-2-yl)methyl]-8-chloro-2-(morpholin-4-yl)pyrazolo[1,5-a][1,3,5]triazin-4-amine]
9.53 | 6.27 | 1.4 | 6827 | COc1cccc2[nH]c(CNc3nc(N4CCN(C)CC4)nc4c(C5CC5)cnn34)nc12 [Example 197, 8-cyclopropyl-N-[(4-methoxy-1H-benzimidazol-2-yl)methyl]-2-(4-methylpiperazin-1-yl)pyrazolo[1,5-a][1,3,5]triazin-4-amine]
1.19 | 0.872 | 0.645 | 1851 | Fc1ccc2[nH]c(CNc3nc(N4CCNCC4)nc4c(C5CC5)cnn34)nc2c1F [Example 174, 8-cyclopropyl-N-[(4,5-difluoro-1H-benzimidazol-2-yl)methyl]-2-(piperazin-1-yl)pyrazolo[1,5-a][1,3,5]triazin-4-amine]
4.33 | 66.2 | 117 | 37 | OC1(C(F)(F)F)CCN(c2nc(NCc3nc4ccccc4[nH]3)n3ncc(Br)c3n2)C1 (centres unmarked) [Example 200, 1-[4-(1H-benzimidazol-2-ylmethylamino)-8-bromo-pyrazolo[1,5-a][1,3,5]triazin-2-yl]-3-(trifluoromethyl)pyrrolidin-3-ol]
> 20 | 7.69 | 5.56 | >3596 | CN1CC2CN(c3nc(NCc4nc5ccccc5[nH]4)n4ncc(Br)c4n3)CC2C1 (centres unmarked) [Example 240, N-(1H-benzimidazol-2-ylmethyl)-8-bromo-2-(2-methyl-1,3,3a,4,6,6a-hexahydropyrrolo[3,4-c]pyrrol-5-yl)pyrazolo[1,5-a][1,3,5]triazin-4-amine]
14.8 | 47.9 | 5.55 | 2661 | Brc1cnn2c(NCc3nc4ccccc4[nH]3)nc(N3C[C@H]4CCCN[C@H]4C3)nc12 [Example 199, N-[(1H-benzimidazol-2-yl)methyl]-8-bromo-2-[(4aR, 7aR)-octahydro-6H-pyrrolo[3,4-b]pyridin-6-yl]pyrazolo[1,5-a][1,3,5]triazin-4-amine]
7.98 | 11.8 | 4.68 | 1704 | CN1CC2CCC1CN2c1nc(NCc2nc3ccccc3[nH]2)n2ncc(Br)c2n1 (centres unmarked) [Example 221, N-(1H-benzimidazol-2-ylmethyl)-8-bromo-2-(5-methyl-2,5-diazabicyclo[2.2.2]octan-2-yl)pyrazolo[1,5-a][1,3,5]triazin-4-amine]
2.72 | 1.49 | 0.226 | 12018 | C[C@@H]1CN(c2nc(NCc3nc4c(F)cccc4[nH]3)n3ncc(C4CC4)c3n2)C[C@H](C)N1 [Example 186, 8-cyclopropyl-2-[(3R,5S)-3,5-dimethylpiperazin-1-yl]-N-[(4-fluoro-1H-benzimidazol-2-yl)methyl]pyrazolo[1,5-a][1,3,5]triazin-4-amine]
5.72 | 12 | 5.98 | 957 | OC1CCN(c2nc(NCc3nc4ccccc4[nH]3)n3ncc(Br)c3n2)CC1 [Example 17, 1-(4-{[(1H-benzimidazol-2-yl)methyl]amino}-8-bromopyrazolo[1,5-a][1,3,5]triazin-2-yl)piperidin-4-ol]
7.12 | 429 | 16.9 | 420 | O=C1CN(c2nc(NCc3nc4ccccc4[nH]3)n3ncc(Br)c3n2)CCN1 [Example 167, 4-(4-{[(1H-benzimidazol-2-yl)methyl]amino}-8-bromopyrazolo[1,5-a][1,3,5]triazin-2-yl)piperazin-2-one]
9.51 | 15.3 | 16.8 | 565 | CCNc1nc(NCc2nc3ccccc3[nH]2)n2ncc(Br)c2n1 [Example 227, N4-(1H-benzimidazol-2-ylmethyl)-8-bromo-N2-ethyl-pyrazolo[1,5-a][1,3,5]triazine-2,4-diamine]
> 15.7 | 11.4 | 2.98 | >5268 | CN1CCN(c2nc(NCc3nc4ccccc4[nH]3)n3ncc(Br)c3n2)CC1 [Example 18, N-[(1H-benzimidazol-2-yl)methyl]-8-bromo-2-(4-methylpiperazin-1-yl)pyrazolo[1,5-a][1,3,5]triazin-4-amine]
8.23 | 2.83 | 2.18 | 3781 | Cc1ccc2[nH]c(CNc3nc(N4C[C@@H]5CCCN[C@@H]5C4)nc4c(C5CC5)cnn34)nc2c1 [Example 195, 8-cyclopropyl-N-[(5-methyl-1H-benzimidazol-2-yl)methyl]-2-[(4aS,7aS)-octahydro-6H-pyrrolo[3,4-b]pyridin-6-yl]pyrazolo[1,5-a][1,3,5]triazin-4-amine]
> 16.4 | < 30 | 14.6 | >1123 | CC(C)c1cnn2c(NCc3nc4ccccc4[nH]3)nc(Nc3ccncc3)nc12 [Example 14, N^4-[(1H-benzimidazol-2-yl)methyl]-8-(propan-2-yl)-N^2-(pyridin-4-yl)pyrazolo[1,5-a][1,3,5]triazine-2,4-diamine]
6.5 | 9.17 | 0.707 | 9192 | Fc1cccc2[nH]c(CNc3nc(N4C[C@@H]5CCCN[C@@H]5C4)nc4c(C5CC5)cnn34)nc12 [Example 187, 8-cyclopropyl-N-[(4-fluoro-1H-benzimidazol-2-yl)methyl]-2-[(4aS,7aS)-octahydro-6H-pyrrolo[3,4-b]pyridin-6-yl]pyrazolo[1,5-a][1,3,5]triazin-4-amine]
> 20 | 4.58 | 1.74 | >11498 | Fc1ccc2[nH]c(CNc3nc(N4C[C@@H]5C[C@H]4CO5)nc4c(C5CC5)cnn34)nc2c1F [Example 173, 8-cyclopropyl-N-[(4,5-difluoro-1H-benzimidazol-2-yl)methyl]-2-[(1S,4S)-2-oxa-5-azabicyclo[2.2.1]heptan-5-yl]pyrazolo[1,5-a][1,3,5]triazin-4-amine]
> 20 | 11.6 | 16.2 | >1232 | CN1C[C@@H]2C[C@H]1CN2c1nc(NCc2nc3ccccc3[nH]2)n2ncc(Br)c2n1 [Example 219, N-[(1H-benzimidazol-2-yl)methyl]-8-bromo-2-[(1S,4S)-5-methyl-2,5-diazabicyclo[2.2.1]heptan-2-yl]pyrazolo[1,5-a][1,3,5]triazin-4-amine]
4.34 | 1.13 | 0.619 | 7019 | Cc1ccc2[nH]c(CNc3nc(N4CCNCC4)nc4c(Br)cnn34)nc2c1 [Example 204, 8-bromo-N-[(5-methyl-1H-benzimidazol-2-yl)methyl]-2-(piperazin-1-yl)pyrazolo[1,5-a][1,3,5]triazin-4-amine]
7.54 | – | 103 | 73 | CCN(C)c1nc(NCc2nc3ccccc3[nH]2)n2ncc(Br)c2n1 [Example 233, N4-(1H-benzimidazol-2-ylmethyl)-8-bromo-N2-ethyl-N2-methyl-pyrazolo[1,5-a][1,3,5]triazine-2,4-diamine]
> 20 | – | 25.5 | >783 | CN(C)[C@@H]1CCN(c2nc(NCc3nc4ccccc4[nH]3)n3ncc(Br)c3n2)C1 [Example 178, N-[(1H-benzimidazol-2-yl)methyl]-8-bromo-2-[(3R)-3-(dimethylamino)pyrrolidin-1-yl]pyrazolo[1,5-a][1,3,5]triazin-4-amine]
